Literature values in patent publication US9585850B2, “Methods of treatment using arylcyclopropylamine compounds” (Duke University, priority 2011, dated 2017).

Tested on: DDD mice
Conditions: Sotnikova et al.

Compound	restoration of locomotion / treatment of akinesia in DDD mice
CN1CCc2cccc3c2[C@H]1Cc1ccc(O)c(O)c1-3 [apomorphine]	effective in treating akinesia
CCCN1C[C@H](CSC)C[C@@H]2c3cccc4[nH]cc(c34)C[C@H]21 [pergolide]	effective in treating akinesia
N[C@@H](Cc1ccc(O)c(O)c1)C(=O)O [L-DOPA, L-3,4-dihydroxyphenylalanine]	fully restored locomotion
